For one assay, the system named is HCT 116 (colon) cells. The assay can be described thus: Anti-cancer screen (MTT), HCT 116. Conditions: Homo sapiens, HCT-116, HCT116, 48 hours, MTT; for GI50: read-out: Cell growth inhibition HCT116 (Colon) GI50; for CC50: read-out: Cell growth inhibition HCT116 (Colon) LC50; for IC (TGI): read-out: Cell growth inhibition HCT116 (Colon) TGI. Type of assay: cell-based. The method, then:
(§1) Experimental drugs were screened for anti-cancer activity in three cell lines using five concentrations for each compound. The cell lines —HCT 116 (colon), NCIH460 (lung) and U251 (glioma) were maintained in DMEM containing 10% fetal bovine serum. 96-well microtiter plates are inoculated with cells in 100 μL of cell suspension (5×10^4 cells/mL) for 24 hours at 37° C., 5% CO2, 95% air and 100% relative humidity. A separate plate with these cell lines is also inoculated to determine cell viability before the addition of the compounds (T0).
(§2) Following 24-hours incubation, test compounds were added to the 96 well plates. Each plate contains one of the above cell lines and the following samples in triplicate: five different dilutions (0.01, 0.1, 1, 10 and 100 μM) of four test compounds, appropriate dilutions of a cytotoxic standard and growth medium (untreated) wells. Test compounds were dissolved in DMSO to prepare 20 mM stock solutions on the day of drug addition and serial dilutions were carried out in complete growth medium at 2× strength such that 100 μL added to wells gave final concentrations (0.01, 0.1, 1, 10 and 100 μM) in the well. SAHA was used as standard drug in these experiments.
(§3) For T0 measurement, 24 hours after seeding the cells, 20 μL of 3-(4,5-dimethyl-2-thiazolyl)-2,5-diphenyl-2H-tetrazolium (MTT) solution per well was added to the ‘T0’ plate and incubated for 3 hours at 37° C. in a CO2 incubator. The plate containing cells and test compounds was treated similarly after 48 hours of incubation. After 3 hours of MTT addition, well contents were aspirated carefully followed by addition of 150 μL DMSO per well. Plates were agitated to ensure dissolution of the formazan crystals in DMSO and absorbance was read at 570 nm (A570).
(§4) (Mosmann T. Rapid colorimetric assay for cellular growth and survival: application to proliferation and cytotoxicity assays. J Immunol Methods 1983; 65(1-2): 55-63; Anne Monks et al. Feasibility of high-flux anticancer drug screen using a diverse panel of cultured human tumor cell lines”. JNCI, Vol. 83, No. 11, 1991).

A further assay has as its system NCIH460 (lung) cells. The assay can be described thus: Anti-cancer screen (MTT), NCIH460. The assay is classed as cell-based. The conditions noted are these: Homo sapiens, NCI-H460, NCIH460, 48 hours, MTT; for GI50: read-out: Cell growth inhibition NCIH460 (Lung) GI50; for LC50: read-out: Cell growth inhibition NCIH460 (Lung) LC50; for IC (TGI): read-out: Cell growth inhibition NCIH460 (Lung) TGI. The method, then: as §1, §2, §3, §4

In assay [1] the test system is NCIH460, HCT116 and U251 cells. The assay can be described thus: Anti-cancer screen, mean GI50 over cell lines. The assay is classed as cell-based. Conditions: mean over cell lines; read-out: Cell growth inhibition Mean GI50. The method, then: as §1, §2, §3, §4
The next assay relates to U251 (glioma) cells. The assay is described as follows: Anti-cancer screen (MTT), U251. Conditions: Homo sapiens, U-251, U251, 48 hours, MTT; for GI50: read-out: Cell growth inhibition U251 (Glioma) GI50; for LC50 (concentration giving 50% net cell kill relative to the time-zero cell count): read-out: Cell growth inhibition U251 (Glioma) LC50; for IC (TGI): read-out: Cell growth inhibition U251 (Glioma) TGI. Type of assay: cell-based. As for the experimental part: as §1, §2, §3, §4

The test system of assay [2] is HDAC (Mouse Liver Extract). The assay can be described thus: HDAC inhibition assay using Boc-Lys(Ac)-AMC substrate. Type of assay: biochemical. The conditions noted are these: mouse liver enzyme. As for the experimental part: Inhibition of HDAC has been implicated to modulate transcription and to induce apoptosis or differentiation in cancer cells. The fluorometric assay provides a fast and fluorescence based method that eliminates radioactivity, extractions or chromatography, as used in traditional assays. The assay is based on two steps. First, the HDAC fluorometric substrate, which comprises an acetylated lysine side chain, is incubated with a sample containing HDAC activity (Mouse Liver Extract). Deacetylation of the substrate sensitizes the substrate, in the second step; treatment with the Trypsin stop solution produces a fluorophore that can be easily analyzed using fluorescence plate reader. Assay was done in 96-well black microplate and total volume of the assay was […]. […] The plate was pre-incubated at 37° C. for 5 minutes. […] The plate was incubated at 37° C. for 30 min. The reaction was stopped by adding 100 μL, of Trypsin stop solution and incubating at 37° C. for 15-30 min. Measuring the fluorescence at excitation wavelength of 360 nm and emission wavelength of 460 nm monitored the release of AMC. Buffer alone and substrate alone served as blank. […] (Dennis Wegener et al, Anal. Biochem, 321, 2003, 202-208).

A value given as a limit tells only on which side of the number the result lay.

What is called GI50 is the concentration giving 50% growth inhibition. Broadly, the LC50 is the concentration that kills 50% of the test population. With `COc1ccc(/C(=C\c2ccc(SC)cc2)C(=O)NCc2ccc(C(=O)NO)cc2)cc1` [Compound 57, 4-((2-(4-Methoxyphenyl)-3-(4-methylthiophenyl)acrylamido)methyl)-N-hydroxybenzamide], in the assay with HCT 116 (colon) cells, the GI50 is 1.8 µM, the CC50 stood at 54 µM and the IC (TGI) worked out at 8 µM. Also, in the assay on NCIH460 (lung) cells, the GI50 stood at 3 µM, the LC50 amounted to 33 µM and the IC (TGI) turned out to be 8 µM. Besides, in assay [1], the GI50 worked out at 1.7 µM. Besides, in the assay with U251 (glioma) cells, the GI50 came out at 0.2 µM, the LC50 (concentration giving 50% net cell kill relative to the time-zero cell count) was found to be 60 µM and the IC (TGI) was 0.4 µM.

Take `O=C(CCCCCNC(=O)/C(=C/C1CC1)c1ccc(F)cc1)NO` [Compound 93, 6-(2-(4-Fluorophenyl)-3-(cyclopropyl)acrylamido)-N-hydroxy hexanamide]: in the assay with HCT 116 (colon) cells, the GI50 is 54 µM, the CC50 is more than 100 µM and the IC (TGI) was more than 100 µM. Moreover, in the assay on NCIH460 (lung) cells, the GI50 is more than 100 µM, the LC50 is more than 100 µM and the IC (TGI) is more than 100 µM. Further, in assay [1], the GI50 amounted to 73 µM. In addition, in the assay with U251 (glioma) cells, the GI50 came to 92 µM, the LC50 (concentration giving 50% net cell kill relative to the time-zero cell count) was more than 100 µM and the IC (TGI) was more than 100 µM.

Take `CSc1ccc(/C=C(/C(=O)NCc2ccc(C(=O)NO)cc2)c2ccc(C)cc2)cc1` [Compound 58, 4-((2-(4-Methylphenyl)-3-(4-methylthiophenyl)acrylamido)methyl)-N-hydroxybenzamide]: in the assay on HCT 116 (colon) cells, the GI50 was determined as 2.8 µM, the CC50 came out at 65 µM and the IC (TGI) was determined as 18 µM. Besides, in the assay with NCIH460 (lung) cells, the GI50 turned out to be 2.1 µM, the 50% lethal concentration (LC50) was 81 µM and the IC (TGI) is 6 µM. For the same compound, the GI50 in assay [1] was determined as 8.6 µM. In addition, in the assay with U251 (glioma) cells, the GI50 came out at 21 µM, the LC50 (concentration giving 50% net cell kill relative to the time-zero cell count) was determined as 80 µM and the IC (TGI) came out at 35 µM.

In the case of `COc1cc(/C=C(/C(=O)NCc2ccc(C(=O)Nc3ccccc3N)cc2)c2ccc(F)cc2)cc(OC)c1` [Compound 17, N-(2-Aminophenyl)-4-((3-(3,5-dimethoxyphenyl)-2-(4-fluorophenyl)acrylamido)methyl)benzamide], in the assay with HCT 116 (colon) cells, the concentration for 50% growth inhibition (GI50) turned out to be 29 µM, the CC50 was more than 100 µM and the IC (TGI) worked out at 69 µM. In addition, in the assay with NCIH460 (lung) cells, the 50% growth inhibitory concentration (GI50) worked out at 38 µM, the LC50 was more than 100 µM and the IC (TGI) was 80 µM. Further, the concentration for 50% growth inhibition (GI50) in assay [1] is 33.5 µM. Also, in assay [2], the “HDAC inhibition % (1 μM)” value was 25.7% and the “HDAC inhibition % (10 μM)” value turned out to be 20.3%.

Regarding `CSc1ccc(/C=C(/C(=O)NCc2ccc(C(=O)Nc3ccccc3N)cc2)c2ccccc2Cl)cc1` [Compound 23, N-(2-Aminophenyl)-4-((3-(4-methylthiophenyl)-2-(2-chlorophenyl)acrylamido)methyl)benzamide], in the assay with HCT 116 (colon) cells, the GI50 is 4 µM, the CC50 came out at 98 µM and the IC (TGI) is 8 µM. Also, in the assay on NCIH460 (lung) cells, the GI50 worked out at 34 µM, the LC50 was more than 100 µM and the IC (TGI) is more than 100 µM. Moreover, the GI50 in assay [1] was determined as 19 µM. Also, in the assay on U251 (glioma) cells, the GI50 is more than 100 µM, the LC50 (concentration giving 50% net cell kill relative to the time-zero cell count) was more than 100 µM and the IC (TGI) was more than 100 µM.

What is called IC50 is the midpoint of a concentration-inhibition curve. Low readings indicate inhibition by little substance, high ones a need for much substance. Consider `Nc1ccccc1NC(=O)c1ccc(CNC(=O)/C(=C/c2ccnc3ccccc23)c2ccc(F)cc2)cc1` [Compound 22, N-(2-Aminophenyl)-4-((3-(quinolin-4-yl)-2-(4-fluorophenyl)acrylamido)methyl)benzamide], for which, in the assay with HCT 116 (colon) cells, the GI50 came out at 7.9 µM, the CC50 was more than 100 µM and the IC (TGI) came to 70 µM. Also, in the assay with NCIH460 (lung) cells, the concentration for 50% growth inhibition (GI50) amounted to 7.6 µM, the LC50 was more than 100 µM and the IC (TGI) is 80 µM. Further, the GI50 in assay [1] was determined as 7.8 µM. For the same compound, in assay [2], the “HDAC inhibition % (1 μM)” value was 32.9%, the “HDAC inhibition % (10 μM)” value stood at 56.1% and 3.2 µM corresponded to half-maximal inhibition (IC50).

Consider `Nc1ccccc1NC(=O)c1ccc(CNC(=O)/C(=C/c2ccc(F)c(C(F)(F)F)c2)c2ccc([N+](=O)[O-])cc2)cc1` [Compound 5, N-(2-Aminophenyl)-4-((3-(4-fluoro-3-trifluoromethylphenyl)-2-(4-nitrophenyl)acrylamido)methyl)benzamide], for which, in the assay on HCT 116 (colon) cells, the GI50 was 3.1 µM, the CC50 was more than 100 µM and the IC (TGI) was determined as 11 µM. Also, in the assay on NCIH460 (lung) cells, the 50% growth inhibitory concentration (GI50) was found to be 5.5 µM, the LC50 was more than 100 µM and the IC (TGI) is more than 100 µM. The GI50 in assay [1] is 4.3 µM. In assay [2], the “HDAC inhibition % (1 μM)” value came out at 0.0% and the “HDAC inhibition % (10 μM)” value is reported as −27.4%.

As for `Nc1ccccc1NC(=O)c1ccc(CNC(=O)/C(=C/c2ccncc2)c2ccc(F)cc2)cc1` [Compound 15, N-(2-Aminophenyl)-4-((3-(pyridin-4-yl)-2-(4-fluorophenyl)acrylamido)methyl)benzamide], in the assay with HCT 116 (colon) cells, the 50% growth inhibitory concentration (GI50) was 2.7 µM, the CC50 was found to be 94 µM and the IC (TGI) was determined as 30 µM. Further, in the assay on NCIH460 (lung) cells, the GI50 is 8.8 µM, the LC50 worked out at 95 µM and the IC (TGI) is 60 µM. Further, the GI50 in assay [1] came to 5.8 µM. For the same compound, in assay [2], the “HDAC inhibition % (1 μM)” value amounted to 42.7%, the “HDAC inhibition % (10 μM)” value is on record as 56.9% and the IC50 is 3.8 µM.

In the case of `COc1ccc(/C(=C\c2ccc(SC)cc2)C(=O)NCCCCCC(=O)NO)cc1` [Compound 92, 6-(2-(4-Methoxyphenyl)-3-(4-methylthiophenyl)acrylamido)-N-hydroxy hexanamide], in the assay on HCT 116 (colon) cells, the GI50 was 7.5 µM, the CC50 worked out at 87 µM and the IC (TGI) was 46 µM. Besides, in the assay on NCIH460 (lung) cells, the GI50 is 6 µM, the median lethal concentration (LC50) amounted to 82 µM and the IC (TGI) was found to be 40 µM. Besides, the GI50 in assay [1] amounted to 7.8 µM. In the assay on U251 (glioma) cells, the GI50 stood at 10 µM, the LC50 (concentration giving 50% net cell kill relative to the time-zero cell count) turned out to be 76 µM and the IC (TGI) is 16 µM.

In the case of `COc1ccc(/C(=C\c2ccc(SC)cc2)C(=O)NCc2ccc(C(=O)Nc3ccccc3N)cc2)cc1` [Compound 16, N-(2-Aminophenyl)-4-((3-(4-methylthiophenyl)-2-(4-methoxyphenyl)acrylamido)methyl)benzamide], in the assay on HCT 116 (colon) cells, the GI50 turned out to be 40 µM, the CC50 was more than 100 µM and the IC (TGI) came out at 82 µM. For the same compound, in the assay on NCIH460 (lung) cells, the GI50 was 45 µM, the 50% lethal concentration (LC50) was more than 100 µM and the IC (TGI) is 97 µM. In addition, the GI50 in assay [1] stood at 42.5 µM. Moreover, in assay [2], the “HDAC inhibition % (1 μM)” value stood at 30.7% and the “HDAC inhibition % (10 μM)” value is 46.0%.

Take `CSc1ccc(/C=C(/C(=O)NCCCCCC(=O)NO)c2ccccc2F)cc1` [Compound 94, 6-(2-(2-Fluorophenyl)-3-(4-methylthiophenyl)acrylamido)-N-hydroxy hexanamide]: in the assay with HCT 116 (colon) cells, the GI50 came to 3.3 µM, the CC50 was 80 µM and the IC (TGI) is 22 µM. Further, in the assay on NCIH460 (lung) cells, the GI50 was determined as 4.2 µM, the LC50 is 74 µM and the IC (TGI) worked out at 26 µM. Moreover, the GI50 in assay [1] worked out at 2.8 µM. In the assay on U251 (glioma) cells, the 50% growth inhibitory concentration (GI50) is 1 µM, the LC50 (concentration giving 50% net cell kill relative to the time-zero cell count) was 70 µM and the IC (TGI) worked out at 10 µM.

The values above are taken from patent publication US8476255B2, “Histone deacetylase inhibitors” (Orchid Chemicals & Pharmaceuticals Limited, priority 2007, dated 2013).
